Article PMC4239038, “The Potent Cdc7-Dbf4 (DDK) Kinase Inhibitor XL413 Has Limited Activity in Many Cancer Cell Lines and Discovery of Potential New DDK Inhibitor Scaffolds” (PLoS ONE, 2014)
Values joined by “and” are separate entries in the source; they are usually repeats but may differ in a detail not shown here. Equal values may be shown once. Where a name gives a salt, the structure may show the parent alone. Read-outs that look alike come from different tables or passages of the source.

Experiments:
DDK = details: read-out: DDK IC50 (in vitro), cited from earlier work
human cell lines = details: average from 61 human cell lines ref 42,43; read-out: Cellular Proliferation IC50; cited from earlier work
HCT116 (p53-/-) cells = assay: Cell viability, CellTiter-Glo; assay type: cell-based; details: Homo sapiens, HCT-116, 72 hrs post drug addition
HCC1954 cells [1] = assay: Caspase 3/7 activity (apoptosis); assay type: cell-based; details: for Apoptosis induction (Caspase 3/7 activity): HCC1954, 24 hours
Protocol: Caspase 3/7 activity and viable cell number were then measured using the Caspase-Glo 3/7 assay (Promega) and CellTiter-Glo assay (Promega), respectively.

MDA-MB-453 = assay: Cell viability at 5 µM inhibitor; details: MDA-MB-453, 5 µM, 72 hrs, relative to vehicle
Colo-205 cells [2] = details: Colo-205, 24 hours
purified Cdk9 = test system: purified Cdk9; set-up: method as in PMID 18469809; details: purified Cdk9 ref 43; cited from earlier work
[3] = test system: Mcm2 phosphorylation in Colo-205 cells; assay: Immunoblot of DDK-dependent Mcm2 phosphorylation; assay type: cell-based; details: Colo-205, 5 µM, 24 hours
Colo-205 cells [4] = assay: Cell viability, CellTiter-Glo; assay type: cell-based; details: Homo sapiens; Colo-205, 72 hrs post drug addition
HCT116 (p53+/+) cells = assay: Cell viability, CellTiter-Glo; assay type: cell-based; details: Homo sapiens, HCT-116; HCT116 (p53+/+), 72 hrs post drug addition
Eight tumor cell lines = assay: Cell viability at 5 µM inhibitor, cell line panel; assay type: cell-based; details: 72 hrs, relative to vehicle controls
MCF-7 = assay: Cell viability at 5 µM inhibitor; details: MCF-7, 5 µM, 72 hrs, relative to vehicle
[5] = test system: Mcm2 Serine 53 phosphorylation in HCC1954 cells; assay: Immunoblot of DDK-dependent Mcm2 phosphorylation; assay type: cell-based
Protocol: Whole cell extracts were prepared by re-suspending the pellets in RIPA buffer (150 mM NaCl, 1% NP-40, 0.5% sodium deoxycholate, 0.1% SDS, 50 mM Tris HCl, pH 8) containing protease inhibitors (100 µM PMSF, 1 mM Benzamide, 2.5 µg/ml Pepstatin A, 10 µg/ml Leupeptin, and 10 µg/ml Aprotinin) and phosphatase inhibitors (1 mM each NaF, Na3VO4 and Na4P2O7). Protein concentration was measured using the BCA protein assay kit (Pierce) according to manufacturer's protocol. Equal amounts of protein were subjected to SDS-PAGE and transferred to a nitrocellulose membrane (Millipore). Transfer efficiency and equal loading was confirmed by Ponceau S staining. Following primary and secondary antibody treatments, proteins were visualized using SuperSignal West Pico solutions (Thermo Scientific). Anti-Mcm2 and anti-S53-phospho-Mcm2 antibodies were purchased from Bethyl Laboratories; anti-β-actin was from Sigma; anti-mouse and anti-rabbit HRP antibodies were from GE Healthcare; and anti-Cdc7 and anti-Dbf4 antibodies were described previously.
Effective cellular uptake of the DDK inhibitor should compromise DDK activity in vivo. Among the many targets of DDK are components of the replicative Mcm2–7 helicase. Serine 53 of Mcm2 subunit is a well-characterized target site for DDK mediated phosphorylation. We quantitated levels of phosphorylation on this site as a measure of DDK activity in vivo. […] Cells were then harvested at 0, 24, 48, and 72 hours post drug addition to measure viable cells and Mcm2 phosphorylation by immunoblotting.

HCC1954 cells [6] = assay: Cell viability, CellTiter-Glo; assay type: cell-based; details: Homo sapiens, HCC1954, 72 hrs post drug addition
purified DDK [7] = biological target: T1, purified DDK (Homo sapiens, UniProt O00311); assay: In vitro (γ)-32P ATP DDK kinase assay (DDK auto-phosphorylation); assay type: biochemical; details: increasing inhibitor concentrations
T1 construct: His6-Smt3 (SUMO) (N, cleaved yes); made in house; host or cells: E. coli BL21-RIPL (pKT37, pETDuet-1 vector)

purified DDK [8] = biological target: T1, purified DDK; assay: DDK thermal stability shift assay (TSA); assay type: binding
PKR = test system: PKR; set-up: method as in PMID 12890478; details: cited from earlier work
[9] = titration, beginning at a 1 µM concentration

T1 sequence (O00311 whole entry): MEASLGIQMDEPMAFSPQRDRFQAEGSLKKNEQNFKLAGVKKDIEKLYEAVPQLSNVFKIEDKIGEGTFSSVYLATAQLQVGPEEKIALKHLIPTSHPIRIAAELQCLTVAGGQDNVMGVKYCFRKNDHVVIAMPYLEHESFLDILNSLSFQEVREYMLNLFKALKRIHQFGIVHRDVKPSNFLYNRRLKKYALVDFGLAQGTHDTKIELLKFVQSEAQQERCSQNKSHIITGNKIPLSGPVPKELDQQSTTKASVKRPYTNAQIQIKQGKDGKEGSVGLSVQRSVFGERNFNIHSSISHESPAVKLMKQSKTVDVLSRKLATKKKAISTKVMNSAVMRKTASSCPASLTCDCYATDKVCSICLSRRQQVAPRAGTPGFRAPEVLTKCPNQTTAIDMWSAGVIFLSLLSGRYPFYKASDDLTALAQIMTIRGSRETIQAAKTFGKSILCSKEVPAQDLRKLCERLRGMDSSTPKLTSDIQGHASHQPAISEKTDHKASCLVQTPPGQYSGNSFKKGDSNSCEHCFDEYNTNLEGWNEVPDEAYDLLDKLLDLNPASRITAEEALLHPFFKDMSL
T1 sequence (Q9UBU7 341-674 partner limits assumed): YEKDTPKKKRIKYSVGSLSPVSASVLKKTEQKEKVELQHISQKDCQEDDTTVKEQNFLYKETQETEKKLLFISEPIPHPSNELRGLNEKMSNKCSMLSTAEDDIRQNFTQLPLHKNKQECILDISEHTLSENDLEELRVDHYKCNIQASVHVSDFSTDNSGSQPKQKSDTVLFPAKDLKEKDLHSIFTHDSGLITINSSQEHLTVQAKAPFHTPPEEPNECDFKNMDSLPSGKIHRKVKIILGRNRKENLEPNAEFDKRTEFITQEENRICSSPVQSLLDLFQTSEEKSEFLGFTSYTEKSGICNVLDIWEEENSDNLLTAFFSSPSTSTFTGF

## N#Cc1ccc2ccn(-c3cc(N)ncn3)c2n1 [1-(6-aminopyrimidin-4-yl)pyrrolo[2,3-b]pyridine-6-carbonitrile]
DDK
  IC50: 9 nM

## NC(=O)c1cc(-c2ccnc(N)n2)[nH]c1-c1ccccc1 [5-(2-Amino-pyrimidin-4-yl)-2-phenyl-1H-pyrrole-3-carboxamide]
DDK
  IC50: 22 nM

## C=CCc1c(C)nc2sc3c(N)ncnc3c2c1C [7,9-dimethyl-8-prop-2-enylpyrido[2,3]thieno[2,4-d]pyrimidin-4-amine]
DDK
  IC50: 20 nM

## O=C1N=C(NCc2ccccc2)S/C1=C\c1c[nH]c2ncccc12 [(5Z)-2-(Benzylamino)-5-(1H-pyrrolo[2,3-b]pyridin-3-ylmethylene)-1,3-thiazol-4(5H)-one]
DDK
  IC50: 9 nM

## O=C1NCCc2[nH]c(-c3ccncc3)cc21 [PHA-767491, 2-pyridin-4-yl-1,5,6,7-tetrahydro-pyrrolo[3,2-c]pyridin-4-one]
Human cell lines
  IC50: 3170 nM
HCT116 (p53-/-) cells
  IC50: 1000 nM
HCC1954 cells [1]
  Apoptosis induction (Caspase 3/7 activity): induced apoptosis
MDA-MB-453
  Inhibition of proliferation: 2.5 fold
Colo-205 cells [2]
  Apoptosis induction (Caspase 3/7 activity): induced apoptosis
Purified Cdk9
  IC50: 34 nM
[3]
  Mcm2 phosphorylation: completely abolished Mcm2 phosphorylation
Colo-205 cells [4]
  IC50: 1300 nM
HCT116 (p53+/+) cells
  IC50: 450 nM
Eight tumor cell lines
  Anti-proliferative activity: significantly inhibited proliferation in all cell lines tested
MCF-7
  Inhibition of proliferation: 2 fold
[5]; HCC1954, 1 µM, 24 to 72 hours
  Mcm2 phosphorylation: very little residual Mcm2 phosphorylation
[5]; HCC1954, 2 µM, by 24 hours
  Mcm2 phosphorylation: completely abolished Mcm2 phosphorylation
DDK; purified kinase ref 42,43
  IC50: 10 nM
HCC1954 cells [6]
  IC50: 640 nM

## Cc1ccc([N+](=O)[O-])cc1S(=O)(=O)N(C)/N=C/c1cnc2ccc(Br)cn12 [PI 3-Kα Inhibitor VIII, N-((1E)-(6-Bromoimidazo[1,2-a]pyridin-3-yl)methylene)-N'-methyl-N''-(2-methyl-5-nitrobenzene)sulfonohydrazide, HCl]
Purified DDK [7]
  IC50: 1300 nM
Purified DDK [8]; library screen, 20 µM compound
  ΔTm at 20 µM: 2.6 °C

## O=C1Nc2ccc3ncsc3c2/C1=C/c1cnc[nH]1 [PKR inhibitor, (8Z)-8-(1H-imidazol-5-ylmethylidene)-6H-pyrrolo[2,3-g][1,3]benzothiazol-7-one]
Purified DDK [7]
  IC50: 67.5 nM and ~70 nM
HCC1954 cells [1]; HCC1954, 2 µM, 24 hours
  Increase of Caspase 3/7 activity relative to the DMSO control: 20 fold
Purified DDK [8]; library screen, 20 µM compound
  ΔTm at 20 µM: 2.4 °C
Purified DDK [8]; [9]
  ΔTm: ≥ 2 °C
[5]; HCC1954, 2 µM PKR inhibitor
  Mcm2 phosphorylation: strongly inhibited Mcm2 phosphorylation
PKR
  IC50: 210 nM
HCC1954 cells [6]; HCC1954, 72 h
  IC50: 1700 nM

## c1ccc2c(-c3ccncc3)c[nH]c2c1 [Rockout, 3-pyridin-4-yl-1H-indole]
Purified DDK [7]
  IC50: 860 nM
Purified DDK [8]; [9]
  ΔTm: ≥ 2 °C

## C[S+]([O-])c1ccc(-c2nc(-c3ccc(F)cc3)c(-c3ccncc3)[nH]2)cc1.Cl (stereo not shown) [SB 203580 hydrochloride]
Purified DDK [8]; library screen, 20 µM compound
  ΔTm: 0 °C

## CS(=O)(=O)c1ccc(-c2nc(-c3ccc(F)cc3)c(-c3ccncc3)[nH]2)cc1 [SB 203580, Sulfone]
Purified DDK [8]; 20 µM
  ΔTm: 0.5 °C

## O=C1NC(=O)c2c1c1c3ccccc3n3c1c1c2c2ccccc2n1[C@H]1CC[C@@H]3O1 [SB 218078]
Purified DDK [7]
  IC50: 19.3 nM
HCC1954 cells [1]
  Apoptosis induction (Caspase 3/7 activity): low levels of apoptosis were induced
Purified DDK [8]; [9]
  ΔTm: ≥ 2 °C
[5]; HCC1954, SB 218078
  Mcm2 phosphorylation: modestly inhibits Mcm2 phosphorylation
HCC1954 cells [6]; HCC1954, 72 h
  IC50: 2420 nM

## NC(=O)c1ccc(-c2nc(-c3ccc4c(c3)OCO4)c(-c3ccccn3)[nH]2)cc1 [SB 431542]
Purified DDK [8]; library screen, 20 µM compound
  ΔTm at 20 µM: 0 °C

## N#C/C(=C(\N)Sc1ccc(N)cc1)c1ccccc1C(F)(F)F [SL 327]
Purified DDK [8]; library screen, 20 µM compound
  ΔTm at 20 µM: 0.5 °C

## Oc1c2ccccc2c2c3c(cccc13)N=N2 [SP 600125]
Purified DDK [8]; library screen, 20 µM compound
  ΔTm at 20 µM: 0.2 °C

## O=C(O)c1ccc2c3c1cccc3c(=O)n1c3ccccc3nc21 [STO-609]
Purified DDK [8]; library screen, 20 µM compound
  ΔTm at 20 µM: 0.2 °C

## CN(C)S(=O)(=O)c1ccc2c(c1)/C(=C/c1cc3c([nH]1)CCCC3)C(=O)N2 [SU6656]
Purified DDK [8]; library screen, 20 µM compound
  ΔTm at 20 µM: 0.1 °C

## COc1ccc2c(c1)/C(=C/c1cnc[nH]1)C(=O)N2 [SU9516]
Purified DDK [8]; library screen, 20 µM compound
  ΔTm at 20 µM: 0 °C

## CCN(CC)CCNC(=O)c1c(C)[nH]c(/C=C2\C(=O)Nc3ccc(Cl)cc32)c1C [SU11652]
Purified DDK [8]; library screen, 20 µM compound
  ΔTm at 20 µM: 1.8 °C

## CN(C)c1ccc(/C=C2\C(=O)Nc3ccccc32)cc1 [SU 4312]
Purified DDK [8]; library screen, 20 µM compound, 20 µM
  ΔTm: 0.2 °C

## Cl.Cl.NCCNc1ncc(C(N)=O)c(Nc2cccc(C(F)(F)F)c2)n1 [Syk Inhibitor II]
Purified DDK [8]; library screen, 20 µM compound
  ΔTm: 1.2 °C

## Brc1c(Br)c(Br)c2[nH]nnc2c1Br [TBB, 4,5,6,7-Tetrabromobenzotriazole]
Purified DDK [8]; library screen, 20 µM compound
  ΔTm: 2.5 °C

## CNC1CC2OC(C)(C1OC)n1c3ccccc3c3c4c(c5c6ccccc6n2c5c31)C(=O)NC4O (stereo not shown) [UCN-01, 7-Hydroxystaurosporine]
Purified DDK [8]; library screen, 10 µM compound
  ΔTm at 10 µM: 2.1 °C

## COc1cc2ncnc(Nc3cccc(O)c3)c2cc1OC [WHI-P180, Hydrochloride]
Purified DDK [8]; library screen, 20 µM compound
  ΔTm: 0 °C

## COc1cc2ncnc(Nc3ccc(Cl)cc3F)c2cc1OC.Cl [ZM 306416 hydrochloride]
Purified DDK [8]; library screen, 20 µM compound
  ΔTm: 0 °C

## Cc1ccc(NC(=O)c2cccc(N(C)C)c2)cc1NC(=O)c1ccc(O)cc1 [ZM 336372]
Purified DDK [8]; library screen, 20 µM compound
  ΔTm: 0.5 °C

## Nc1nccc(-c2cc3c([nH]2)[C@@H](CCF)CNC3=O)n1 [[(S )-2-(2-aminopyrimidin-4-yl)-7-(2-fluoro-ethyl)-1,5,6,7-tetrahydropyrrolo[3,2-c]pyridin-4-one]
DDK
  IC50: 2 nM

## CCCCCCCCCCCCCCCCn1cc[n+](Cc2ccccc2)c1C.[I-] [eEF-2 Kinase Inhibitor, NH125]
Purified DDK [8]; library screen, 20 µM compound
  ΔTm: 0 °C

## Bisindolylmaleimide III, Hydrochloride
Purified DDK [8]; library screen, 20 µM compound
  ΔTm: 51 °C

## Cdk1/2 Inhibitor III
Purified DDK [8]; library screen, 20 µM compound
  ΔTm: 1.1 °C

## DNA-PK Inhibitor III
Purified DDK [8]; library screen, 20 µM compound
  ΔTm: 0.2 °C

## IGF-1R Inhibitor II
Purified DDK [8]; library screen, 20 µM compound
  ΔTm: 0 °C

## JAK3 Inhibitor II
Purified DDK [8]; library screen, 20 µM compound
  ΔTm: 0.8 °C

## JAK3 Inhibitor IV
Purified DDK [8]; library screen, 20 µM compound
  ΔTm: 0.3 °C

## JAK Inhibitor I
Purified DDK [8]; library screen, 20 µM compound
  ΔTm: 1.2 °C

## KN-62
Purified DDK [8]; library screen, 20 µM compound
  ΔTm: 0.7 °C

## LY 364947
Purified DDK [8]; library screen, 20 µM compound
  ΔTm: 0.6 °C

## PI 3-Kb Inhibitor II
Purified DDK [8]; library screen, 20 µM compound
  ΔTm: 0.2 °C

## PP1 Analog II, 1NM-PP1
Purified DDK [8]; library screen, 20 µM compound
  ΔTm: 0.2 °C

## Ro-31-8220
Purified DDK [8]; library screen, 20 µM compound
  ΔTm: 1.4 °C

## VEGF Receptor Tyrosine Kinase Inhibitor II
Purified DDK [8]; library screen, 20 µM compound
  ΔTm: 0.2 °C

## Wee1/Chk1 Inhibitor
Purified DDK [8]; library screen, 20 µM compound
  ΔTm: 0 °C
